Measured values as given in patent US20060035892A1, “Nitrosated imidazopyridines” (Atlanta Pharma AG, priority 2002, published 2006).

Tested on: acid secretion stimulated by pentagastrin of the perfused rat stomach
Experiment: Secretion-inhibiting action on the perfused rat stomach (pentagastrin-stimulated acid secretion in vivo)
Conditions: anesthetized female CD rats, pentagastrin 1 μg/kg i.v. stimulation, dose 1 μmol/kg i.d.
From the text: Testing of the Secretion-Inhibiting Action on the Perfused Rat Stomach
In Table A below, the influence of the compounds according to the invention after […] administration is shown on the acid secretion stimulated by pentagastrin of the perfused rat stomach in vivo.
The abdomen of anesthetized rats (CD rats, female, 200-250 g; 1.5 g/kg i.m. urethane) was opened after tracheotomy by means of a median upper abdominal incision and a PVC catheter was fixed transorally in the esophagus and a further catheter via the pylonus such that the ends of the tubing just projected into the gastric lumen. The catheter leading from the pylorus led outwards through a side opening in the right abdominal wall.
After thorough rinsing (about 50-100 ml), warm physiological NaCl solution at 37° C. was continuously passed through the stomach (0.5 ml/min, pH 6.8-6.9; Braun-Unita I). The pH (pH meter 632, glass electrode EA 147; φ=5 mm, Metrohm), and, by titration with a freshly prepared 0.01N NaOH solution to pH 7 (Dosimat 665 Metrohm), the secreted HCl were determined in the effluent in each case collected at an interval of 15 minutes.
The gastric secretion was stimulated by continuous perfusion of 1 μg/kg (=1.65 ml/h) of i.v. pentagastrin (left femoral vein) about 30 min after the end of the operation (i.e. after determination of 2 preliminary fractions). The substances to be tested were administered Intraduodenally in 2,5 ml/kg of liquid volume 60 min after the start of the pentagastrin continuous infusion.
The body temperature of the animals was kept at a constant 37.8-38° C. by infrared irradiation and heat pads (automatic, stepless control by means of rectal temperature sensors).

Row | Compound | Inhibition of acid secretion [%]
1 | COCCO[C@@H]1c2ccn3c(C)c(C)nc3c2N[C@H](c2ccccc2)[C@H]1OC(=O)CCCCO[N+](=O)[O-] [Example 1] | 100
2 | COCCO[C@@H]1c2ccn3c(C)c(C)nc3c2N[C@H](c2ccccc2)[C@H]1OC(=O)CCCO[N+](=O)[O-] [Example 2] | 100
3 | COCCO[C@@H]1c2ccn3c(C)c(C)nc3c2O[C@H](c2ccccc2)[C@@H]1OC(=O)CCCCO[N+](=O)[O-] [Example 3, (7R,8R,9R)-2,3-Dimethyl-7-(2-methoxyethoxy)-9-phenyl-8-(5-nitro-oxy-valeryloxy)-7H-8,9-dihydro-pyrano[2,3-c]imdazo[1,2-a]pyridine] | 100
4 | CCC(CCCOC(=O)O[C@@H]1[C@@H](c2ccccc2)Nc2c(ccn3c(C)c(C)nc23)[C@H]1OCCOC)O[N+](=O)[O-] (stereo partly shown) [Example 4] | 100
